Reference: ChEMBL document CHEMBL4229557, “Synthesis and SAR of new isoxazole-triazole bis-heterocyclic compounds as analogues of natural lignans with antiparasitic activity” (Bioorg Med Chem, 2018)
Activity calls are given as the source filed them. The calls are words filed in the database; no cut-off is given here.

Experiments:
[1] = system: Trypanosoma cruzi; assay: Growth inhibition of Trypanosoma cruzi Tulahuen amastigote forms infected in human THP1 cells after 72 hrs by beta-galactosidase reporter gene assay; assay type: functional
[2] = system: Trypanosoma cruzi; assay: Growth inhibition of Trypanosoma cruzi Tulahuen amastigote forms infected in human THP1 cells at 100 uM after 72 hrs by beta-galactosidase reporter gene assay relative to control; assay type: functional; settings: THP-1, 72 h, read-out: GI
[3] = system: Leishmania amazonensis; assay: Growth inhibition of Leishmania amazonensis MHOM/BR/77/LTB0016 amastigote forms expressing beta-galactosidase infected in human THP1 cells at 100 uM by colorimetrc assay relative to control; assay type: functional
[4] = Selectivity index, ratio of CC50 for human THP1 cells to GI50 for Trypanosoma cruzi Tulahuen amastigote forms infected in human THP1 cells; assay type: toxicity, cell-based; settings: read-out: Selectivity Index
[5] = Cytotoxicity against human THP1 cells after 72 hrs by MTT assay; assay type: cell-based; settings: THP-1 cells
[6] = molecular target: Trypanothione reductase (Trypanosoma cruzi) (UniProt P28593); assay: Inhibition of Trypanosoma cruzi Trypanothione reductase expressed in Escherichia coli BL21(DE3) at 100 uM using T(S)2 as substrate incubated for 30 mins measured for 30 mins in presence of NADPH by DTNB reagent based assay relative to control
[7] = system: Trypanosoma cruzi; assay: Growth inhibition of Trypanosoma cruzi Tulahuen amastigote forms infected in human THP1 cells at 20 uM after 72 hrs by beta-galactosidase reporter gene assay relative to control; assay type: functional; settings: THP-1, 72 h, read-out: GI
[8] = system: Leishmania amazonensis; assay: Growth inhibition of Leishmania amazonensis MHOM/BR/77/LTB0016 amastigote forms expressing beta-galactosidase infected in human THP1 cells at 2 uM by colorimetrc assay relative to control; assay type: functional; settings: MHOM/BR/77/LTB0016, THP-1, read-out: GI

Trypanothione reductase (Trypanosoma cruzi), sequence (P28593 whole entry, looked up): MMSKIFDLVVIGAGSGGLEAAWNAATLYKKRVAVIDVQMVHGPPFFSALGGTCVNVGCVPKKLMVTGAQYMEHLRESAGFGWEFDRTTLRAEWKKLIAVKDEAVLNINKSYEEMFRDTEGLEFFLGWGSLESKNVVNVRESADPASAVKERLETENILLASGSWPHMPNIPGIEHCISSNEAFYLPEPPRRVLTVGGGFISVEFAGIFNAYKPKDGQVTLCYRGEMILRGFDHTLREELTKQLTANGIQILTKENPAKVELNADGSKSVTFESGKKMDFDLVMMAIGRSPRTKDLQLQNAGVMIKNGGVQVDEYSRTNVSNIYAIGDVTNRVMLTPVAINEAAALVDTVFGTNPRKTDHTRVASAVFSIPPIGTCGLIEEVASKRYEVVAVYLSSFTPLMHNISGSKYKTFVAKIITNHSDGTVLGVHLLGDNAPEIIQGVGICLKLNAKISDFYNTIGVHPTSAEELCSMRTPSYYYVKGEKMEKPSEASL

SMILES	inhibition of growth at 100 µM [2]	growth inhibition (GI) [3]	GI50 ([1]; THP-1, 72 h)	further results
Fc1ccc(-c2cn(Cc3cc(-c4ccccc4)no3)nn2)cc1	0%	inactive	–	GI50 [1]: inactive
COc1ccc(-c2cn(Cc3cc(-c4ccccc4)no3)nn2)cc1	43.3%	inactive	> 100 µM	–
CCCCCc1ccc(-c2cn(Cc3cc(-c4ccc(OC)cc4)no3)nn2)cc1	13.4%	inactive	> 100 µM	–
CCCCCc1ccc(-c2cn(Cc3cc(-c4ccccc4)no3)nn2)cc1	0%	inactive	–	GI50 [1]: inactive
Cc1ccc(C)c(-c2cn(Cc3cc(-c4ccccc4)no3)nn2)c1	0%	inactive	–	GI50 [1]: inactive
COc1ccc(-c2cc(Cn3cc(-c4ccc([N+](=O)[O-])cc4)nn3)on2)cc1OC	37.8%	inactive	> 100 µM	–
COc1ccc(-c2cn(Cc3cc(-c4ccc(OC)c(OC)c4)no3)nn2)c(C)c1	13.6%	inactive	> 100 µM	–
Cc1cc(C)c(-c2cn(Cc3cc(-c4ccccc4)no3)nn2)cc1C	89.5%	inactive	88.4 µM	selectivity ratio [4]: 2.3; CC50 at 72 h [5]: 200 µM; inhibition [6]: 0%
OCc1ccc(-c2cn(Cc3cc(-c4ccccc4)no3)nn2)cc1	0%	inactive	–	GI50 [1]: inactive
COc1ccc(-c2cn(Cc3cc(-c4ccccc4)no3)nn2)c(C)c1	18.6%	inactive	> 100 µM	–
COc1ccc(-c2cc(Cn3cc(-c4cc(C)c(C)cc4C)nn3)on2)cc1	33.4%	inactive	> 100 µM	–
c1ccc(-c2cn(Cc3cc(-c4ccccc4)no3)nn2)cc1	33.7%	inactive	> 100 µM	–
COc1ccc(-c2cc(Cn3cc(-c4cc(C)ccc4C)nn3)on2)cc1OC	4%	inactive	> 100 µM	–
O=C(Cn1ccnc1[N+](=O)[O-])NCc1ccccc1 [BENZNIDAZOLE]	–	–	10.2 µM	inhibition of growth at 20 µM [7]: 93%; selectivity ratio [4]: > 49; CC50 at 72 h [5]: > 500 µM
COc1ccc(-c2cn(Cc3cc(-c4ccc5c(c4)OCO5)no3)nn2)cc1	9.9%	–	> 100 µM	inhibition of growth at 100 µM ([3]; MHOM/BR/77/LTB0016, THP-1, read-out: GI): 2.8%
CN(C)c1ccc(-c2cn(Cc3cc(-c4ccccc4)no3)nn2)cc1	32.6%	inactive	> 100 µM	–
C[C@@H]1[C@H](O)[C@@H](C)/C=C/C=C/C=C/C=C/C=C/C=C/C=C/[C@H](O[C@@H]2O[C@H](C)[C@@H](O)[C@H](N)[C@@H]2O)C[C@@H]2O[C@](O)(C[C@@H](O)C[C@@H](O)[C@H](O)CC[C@@H](O)C[C@@H](O)CC(=O)O[C@H]1C)C[C@H](O)[C@H]2C(=O)O [AMPHOTERICIN B]	–	–	–	inhibition of growth at 2 µM [8]: 96.5%
FC(F)(F)Oc1ccc(-c2cn(Cc3cc(-c4ccccc4)no3)nn2)cc1	28.7%	inactive	> 100 µM	–
FC(F)(F)Oc1ccc(-c2cn(Cc3cc(-c4ccc5c(c4)OCO5)no3)nn2)cc1	26.8%	inactive	> 100 µM	–
COc1ccc(-c2cc(Cn3cc(-c4cc(OC)cc(OC)c4)nn3)on2)cc1	3.6%	inactive	> 100 µM	–
COc1ccc(-c2cc(Cn3cc(-c4ccc(CO)cc4)nn3)on2)cc1OC	43.4%	inactive	> 100 µM	–
Nc1ccc(-c2cn(Cc3cc(-c4ccccc4)no3)nn2)cc1	0%	inactive	–	GI50 [1]: inactive
COc1ccc(-c2cc(Cn3cc(-c4ccc(N(C)C)cc4)nn3)on2)cc1OC	33.9%	inactive	> 100 µM	–
